Data published in patent US20100240627A1, “COMPOSITION AND METHODS RELATING TO GLUCOCORTICOID RECEPTOR-ALPHA AND PEROXISOME PROLIFERATOR-ACTIVATED RECEPTORS” (Universiteit Gent, priority 2007, published 2010).
Blank lines part the entries; values can stand above or below the molecule they belong to.

How the values were obtained:
[1] = system: ACO mRNA in mouse liver; experiment: Liver ACO mRNA in treated mice; format: in vivo; conditions: DEX 10 mg/kg i.p., FF 200 mg/kg gavage, daily 5 days
Excerpt: Female C57BL6J mice are used at 8 weeks. Mice are randomized to four groups (six mice/group) and matched for body weight. Animals are killed by cervical dislocation after which thymus and liver are recovered and weighed. Total RNA is extracted from liver as described below. ANOVA is used for all analyses, followed by Scheffe post-hoc tests for treated vs control comparisons. The level of significance for all statistical analyses is set at p<0.05.
GILZ and ACO mRNA expression levels from the liver are quantified via QPCR and normalized for household gene expression. Results from triplicates are shown ±SD. Results are represented as relative expression fold, i.e. with the solvent-treated control value taken as 1.

[2] = system: TRAP5b; experiment: Serum TRAP5b ELISA in DBA/1 mice; format: in vivo, mouse; conditions: DBA/1 mice serum, daily treatment 8 days
Excerpt: (§1) Male 8- to 12-wk-old DBA/1 mice are purchased from Janvier and housed following institutional guidelines. All animal procedures are approved by the institutional animal care and ethics committee. […] The experiment is repeated with agonists for PPARα replaced by the respective agonists for PPARγ (rosiglitazone) or PPARβ/δ (L165041). At day 8, murine serum is collected and used for the determination of TRAP5b and osteocalcin levels. The Mouse TRAP™ Assay is purchased from Immunodiagnostic Systems Ltd. The Mouse Osteocalcin EIA kit is purchased from Biomedical Technologies, Inc. All assays are performed according to the manufacturer's guidelines.
(§2) The experiment is repeated with agonists for PPARα replaced by the respective agonists for PPARγ (rosiglitazone) or PPARβ/δ(L165041). A TRAP5b ELISA assay is performed for the detection of differentiated osteoclasts.

[3] = system: calvarial cells; experiment: Ex vivo osteoclastogenesis and osteoblast differentiation of calvarial cells; format: cell-based, mouse; conditions: pharmacological DEX concentrations
Experimental: Glucocorticoid-induced osteoporosis (GIO) has been considered one of the most debilitating side-effects related to long-term GC usage (Berris, Repp et al. Curr Opin Endocrinol Diabetes Obes 14(6): 446-50). The effects of compositions and methods of the present invention on glucocorticoid-induced osteoporosis is determined by analysis of markers of osteoclastogenesis, including cathepsin K, M-CSF, RANKL and OPG. Since it is believed that an increase in bone resorption is worsened by inhibition of new bone formation, thereby contributing to the GC-mediated decrease in bone mineral density, the effect compositions and methods of the present invention on osteoblast differentiation is determined using calvarial cells isolated from 3-5 day old mice.
Alkaline phosphatase staining and Q-PCR are performed for the detection of Collal, Alkp, Runx-2 and Bglap (osteocalcin) expression after 10 days of osteoblast differentiation. Alizarin Red staining is performed to determine extracellular calcium deposition after 20 days of osteoblast differentiation.
Calvarial cells are isolated from 3-5 day old mice (SV 129 background). A piece of the tail is isolated for genotyping. The pups are decapitated with scissors in the laminar flow cabinet, skin and brain are removed and the calvaria transferred into eppendorf tubes containing 1 ml PBS+1% Pen/Strep. The tubes are put on ice until digestion. […]

[4] = system: osteocalcin; experiment: Serum osteocalcin in DBA/1 mice; format: in vivo, mouse; conditions: daily treatment 8 days
Excerpt: as §1, §2

[5] = system: GRE-driven gene transcription; experiment: p(GRE)2-50-luc reporter in HepG2 cells; format: cell-based, human; conditions: HepG2 overexpressing PPARα (pSG5PPARα); 8 h
Experimental: HepG2 and BWTG3 cells are transiently transfected using Lipofectamine according to the manufacturer's instructions, HEK293T cells using CaPO4. At day −1 40,000-50,000 cells/24-well are seeded. At day 0, medium is replaced by 360 μl of fresh normal medium with 10% serum to the cells. The DNA mix is prepared by dissolving (per 24-well) 400 ng of DNA in 20 μl of TE/CaCl2 solution. The DNA-containing mixture is added dropwise to 20 μl BS/Hepes mixture. All is mixed until a fine precipitate is visible. This precipitate is finally added onto the 360 μl medium. After 8 h, medium is replaced with fresh normal medium with 10% serum and inductions are performed the following day. […]
Luc and β-gal assays are carried out according to instructions of the manufacturer (Promega). Luc activity, expressed in arbitrary light units, is corrected for the protein conc. in the sample by normalization to constitutive β-gal levels. β-gal levels are quantified with a chemiluminescent reporter assay Galacto-Light kit (TROPIX, Bedford, Mass.).
HepG2 cells are transiently transfected with p(GRE)2-50-luc, and pSG5PPARα (black bars) or pSG5 (white bars). […] Promoter activities are expressed as relative induction factor, i.e., the ratio of expression levels of induced versus non-induced conditions.

[6] = system: TNF-induced IL-6 production in L929sA cells; experiment: TNF-induced IL-6 production, murine IL-6 ELISA; format: cell-based; conditions: 1 h pre-incubation, TNF 200 IU/ml 24 h, DEX 0.01 μM, GW647 0.25-1 μM, WY 2-10 μM, FIG. 1
Experimental: Murine IL-6 ELISA is performed using a kit from Biosource.
Medium is collected to perform a murine IL-6 ELISA. Protein levels obtained in ng/ml are calculated as % of max TNF response. Results are shown ±SD. **P<0.01, ***P<0.001 in FIG. 1.

[7] = system: GRE-driven gene expression; experiment: p(GRE)2-50-luc reporter in transfected HEK293T cells; format: cell-based; conditions: 8 h, DEX 1 or 0.1 μM
Experimental: (§3) Cell lysates are assayed for luciferase activities and normalized for β-gal activities. A representative of three independent experiments is shown.

[8] = system: NF-κB-driven gene expression; experiment: p(IL6κB)350hu.IL6P-luc reporter in transfected HEK293T cells; format: cell-based; conditions: TNF 2000 IU/ml 8 h
Experimental: as §3

[9] = system: PDK-4 mRNA (PPARα target gene); experiment: PDK-4 mRNA in primary hepatocytes of WT and PPARα KO mice; format: cell-based, mouse; conditions: 24 h, GW9578 500 nM, WY 10 μM
Experimental: Mouse hepatocytes are isolated by collagenase perfusion from livers of wild type and PPARα KO (PPARα−/−) mice essentially using the collagenase method (18), with several modifications. Mouse livers are perfused with Hanks' balanced salt solution (HBSS, Sigma) at a rate of 5 ml/min via cave vein before addition of collagenase Type IV (0.025%, Sigma). Cell viability is assessed by a Trypan Blue exclusion test. […] After overnight incubation, cells are incubated in a fresh William's E medium supplemented with different compounds, DEX and/or PPARα agonists.

[10] = biological target: T1, mouse PPARα (Mus musculus, UniProt P23204); conditions: cited from earlier work
T1 sequence (P23204 1-468): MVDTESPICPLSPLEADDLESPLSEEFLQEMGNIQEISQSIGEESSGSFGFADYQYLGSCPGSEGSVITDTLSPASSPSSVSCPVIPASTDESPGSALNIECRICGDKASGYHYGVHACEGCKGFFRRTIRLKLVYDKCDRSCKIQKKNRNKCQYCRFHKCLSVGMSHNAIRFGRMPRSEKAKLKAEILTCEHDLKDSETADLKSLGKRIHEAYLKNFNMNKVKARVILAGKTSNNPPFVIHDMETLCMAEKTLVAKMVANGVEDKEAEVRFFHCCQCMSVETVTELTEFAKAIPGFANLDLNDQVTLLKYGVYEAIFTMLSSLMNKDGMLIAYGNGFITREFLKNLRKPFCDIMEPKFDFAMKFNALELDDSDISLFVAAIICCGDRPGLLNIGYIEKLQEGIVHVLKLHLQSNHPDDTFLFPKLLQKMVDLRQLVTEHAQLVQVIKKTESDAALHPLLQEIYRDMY

[11] = system: Glucocorticoid-induced Leucine Zipper (GILZ) mRNA; experiment: QPCR of GILZ mRNA in HepG2 cells; format: cell-based, human; conditions: HepG2 (and A549) cells, 3 h; co-treatment compared to DEX alone
Experimental: (§4) RNA extraction is performed as described before (12). RNA is isolated from cells by using TRIzol reagent (Invitrogen) according to the manufacturer's instructions. The reverse transcriptase reaction is done by using MLV enzyme (Promega) followed by a PCR reaction with Taq polymerase (Promega) on the obtained cDNA. cDNA is analyzed either by a semi-quantitative PCR using Taq polymerase (Promega) or by real-time PCR with a SYBR Green mastermix (Invitrogen). Primers for QPCR of mIL-6: fwd […] (SEQ ID No. 1) and rev […] (SEQ ID No. 2); for mGILZ: fwd […] (SEQ ID No. […]) and rev […] (SEQ ID No. 4); for hGILZ: fwd […] (SEQ ID No. 5) and rev […] (SEQ ID No. 6); for mG6Pase: fwd […] (SEQ ID No. 7) and rev […] (SEQ ID No. 8); for rMCP-1: fwd […] (SEQ ID No. 9) and rev […] (SEQ ID No. 10); for mMMP-9: […] (SEQ ID No. 11) and rev […] (SEQ ID No. 12). Primers for semi-QPCR of hPLAP: fwd […] (SEQ ID No. 13) and rev […] (SEQ ID No. 14).
HepG2 cells and FTO2B cells are incubated with the indicated agents for three hours. mRNA is isolated, reverse transcribed and the resulting cDNA is subjected to SYBR green QPCR with primers to detect G6Pase or Glucocorticoid-induced Leucine Zipper (GILZ). QPCR measurements are performed in triplicate. QPCR results, normalized to expression of household genes, are shown ±SD, in FIGS. 2B and 2C. […]

[12] = system: cathepsin K; experiment: Cathepsin K expression in MG63b osteosarcoma cells; format: cell-based, human; conditions: 24 hour, DEX 10^−6M, WY 10 μM
Experimental: Cell culture—Human osteosarcoma cells MG63b and Saos-2 are cultured in Dulbecco Modified Eagle's Medium (DMEM) and McCoy's 5a Medium respectively, supplemented with 10% fetal calf serum (FCS), 100 units/ml penicillin and 0.1 mg/ml streptomycin. RT-PCR—After the appropriate inductions RNA is isolated from the cells by means of the RNeasy mini kit (Qiagen) according to the manufacturer's instructions. The mRNA is reverse transcribed with the verso cDNA kit (ABgene). The obtained cDNA is amplified by a quantitative PCR reaction with iQ Custom SYBR Green Supermix (Biorad). Gene expression of the housekeeping gene hypoxanthine-guanine phosphoribosyltransferase (HPRT) is used for normalization.

[13] = system: human placental alkaline phosphatase (hPAP) mRNA; experiment: Semi-quantitative PCR of hPAP mRNA; format: cell-based; conditions: HepG2 and A549 cells, 8 h; DEX 1 μM, WY 10 μM; co-treatment compared to DEX alone
Experimental: as §4
A549 or HepG2 cells are treated for eight hours, mRNA is isolated, reverse transcribed and the resulting cDNA is subjected to semi-quantitative PCR analysis with primers to detect GAPDH (loading control) or hPAP in the same sample. […] Treatment with WY alone has no effect on hPAP mRNA expression.

TRAP5b levels [2]: upregulates TRAP5b levels after 8 days
amount of osteocalcin in murine serum [4]: significantly lowers
Compound: C[C@@H]1C[C@H]2[C@@H]3CCC4=CC(=O)C=C[C@]4(C)[C@@]3(F)[C@@H](O)C[C@]2(C)[C@@]1(O)C(=O)CO [DEX, dexamethasone]
ACO mRNA levels in liver [1]: no effect
osteoclastogenesis [3]: inhibit osteoclastogenesis

Compound: CC(C)(Sc1ccc(CCN(CCCCC2CCCCC2)C(=O)NC2CCCCC2)cc1)C(=O)O [GW647, 2-(4-(2-(1-Cyclohexanebutyl-3-cyclohexylureido)ethyl)phenylthio)-2-methylpropionic acid]
DEX-induced luciferase activity of p(GRE)2-50-luc [5]: further enhanced
TNF-induced IL-6 production [6]: inhibited TNF-induced IL-6 production in a dose-responsive manner
GRE-driven gene expression (luc) ([7]; HEK293T with pSVhGRα and pSG5PPARα, GW647 0.5 μM, FIG. 13A): able to antagonize GRE-driven gene expression
NF-κB-driven gene expression (luc) ([8]; HEK293T with pSVhGRα and pSG5PPARα, GW647 0.5 μM, FIG. 12A): inhibits NF-κB-driven gene expression

Compound: CCCCCCCN(CCc1ccc(SC(C)(C)C(=O)O)cc1)C(=O)Nc1ccc(F)cc1F [GW9578]
PDK-4 mRNA levels [9]: significant increase in PDK-4 mRNA levels only in WT cells
EC50 [10]: 5 nM

Compound: CCCc1c(OCCCOc2ccc(OCC(=O)O)cc2)ccc(C(C)=O)c1O [L165041]
GRE-driven gene expression (luc) ([7]; HEK293T with pSVhGRα and pSG5PPARδ, L165041 1 μM, FIG. 13B): able to antagonize the GRE-driven gene expression
NF-κB-driven gene expression (luc) ([8]; HEK293T with pSVhGRα and pSG5PPARδ, L165041, FIG. 12B): efficiently inhibit NF-κB-driven gene expression

Compound: O=S(=O)(c1ccccc1)N(CC(F)(F)F)c1ccc(C(O)(C(F)(F)F)C(F)(F)F)cc1 [T0901317]
GRE-driven gene expression (luc) ([7]; HEK293T with pSVhGRα and pCMX-LXR, T0901317 1 μM, FIG. 13C): not able to antagonize GRE-driven gene expression
NF-κB-driven gene expression (luc) ([8]; HEK293T with pSVhGRα and LXR plasmid, T0901317 1 μM, FIG. 12C): efficiently inhibit NF-κB-driven gene expression

Compound: Cc1cccc(Nc2cc(Cl)nc(SCC(=O)O)n2)c1C [WY, [[4-chloro-6-[(2,3-dimethylphenyl)amino]-2-pyrimidinyl]thio]-acetic acid]
GILZ mRNA expression [11]: no effect
cathepsin K expression [12]: prevent or reverse the upregulation
DEX-induced luciferase activity of p(GRE)2-50-luc [5]: confirmed
PDK-4 mRNA levels [9]: significant increase in PDK-4 mRNA levels only in WT cells
TNF-induced IL-6 production [6]: inhibited TNF-induced IL-6 production in a dose-responsive manner
hPAP mRNA expression [13]: no effect
